The results in this text go back to patent US20020151553A1, “Chemokine receptor antagonists and methods of use therefor” (Millennium Pharmaceuticals, Inc., priority 1996, published 2002).

The assay deals with T1, chemokine receptor (RANTES / MIP-1α binding) on THP-1 cell membranes (Homo sapiens, UniProt P32246).
T1 sequence (P32246 1-355): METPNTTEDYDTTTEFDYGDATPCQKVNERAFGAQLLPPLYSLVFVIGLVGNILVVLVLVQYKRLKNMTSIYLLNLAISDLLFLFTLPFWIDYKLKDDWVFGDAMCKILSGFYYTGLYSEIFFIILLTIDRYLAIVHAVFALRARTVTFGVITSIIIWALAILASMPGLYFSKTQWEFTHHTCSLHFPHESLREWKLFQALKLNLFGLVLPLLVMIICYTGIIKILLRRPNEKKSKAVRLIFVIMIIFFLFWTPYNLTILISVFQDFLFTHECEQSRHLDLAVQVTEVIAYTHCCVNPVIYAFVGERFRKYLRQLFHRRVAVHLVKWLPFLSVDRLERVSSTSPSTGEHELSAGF
Nature of the assay: Receptor binding assay with 125I-RANTES or 125I-MIP-1α as ligand and THP-1 cell membranes. The procedure:
Membranes were prepared from THP-1 cells (ATCC #TIB202). Cells were harvested by centrifugation, washed twice with PBS (phosphate-buffered saline), and the cell pellets were frozen at −70 to −85° C. […] This procedure results in cell lysis. The suspension was mixed well to resuspend all of the frozen cell pellet. Nuclei and cell debris were removed by centrifugation of 400× g for 10 minutes at 4° C. The supernatant was transferred to a fresh tube and the membrane fragments were collected by centrifugation at 25,000× g for 30 minutes at 4° C. The supernatant was aspirated and the pellet was resuspended in freezing buffer consisting of 10 mM HEPES pH 7.5, 300 mM sucrose, 1 μg/ml each aprotinin, leupeptin, and chymostatin, and 10 μg/ml PMSF approximately 0.1 ml per each 10^8 cells). All clumps were resolved using a minihomogenizer, and the total protein concentration was determined using a protein assay kit (Bio-Rad, Hercules, Calif., cat #500-0002). The membrane solution was then aliquoted and frozen at −70 to −85° C. until needed. Binding Assays utilized the membranes described above.

[1] abbreviates: 125I-RANTES or 125I-MIP-1α as ligand, THP-1 cell membranes, 60 min at room temperature, read-out: IC50 (inhibitor concentration required for 50% inhibition of specific binding).

Like-named read-outs stand apart in the source and are kept apart here.

For the compound “1-[2-[3-[4-(4-chlorophenyl)-4-hydroxypiperidino]propyl]-2-(6,11-dihydrodibenzo[b,e]thiepi n-11-yl)ethyl]-3-(hydroxypropyl)urea [Example 23]”, the IC50 under setting [1] was determined as 2200 nM.

Consider `N#CC1(CCCN2CCC(O)(c3ccc(Cl)cc3)CC2)c2ccccc2C[S+]([O-])c2ccccc21` (single isomer, unassigned) [Example 14, 4-(4-Chlorophenyl)-1-[3-(11-cyano-6,11-dihydro-5-oxodibenzo[b,e]thiepin-11-yl)propyl]piperidin-4-ol], for which the IC50 came out at 280 nM.

`N#CC1(CCCN2CCC(O)(c3ccc(Cl)cc3)CC2)c2ccccc2C[S+]([O-])c2ccccc21` (single isomer, unassigned) [Example 15, 4-(4-Chlorophenyl)-1-[3-(11-cyano-6,11-dihydro-5-oxodibenzo[b,e]thiepin-11-yl)propyl]piperidin-4-ol] came in with an IC50 of 610 nM.

In the case of `N#CC1(CCCN2CCC(O)(c3ccc(Cl)cc3)CC2)c2ccccc2C=Cc2ccccc21` [Example 1, 4-(4-Chlorophenyl)1-[3-(5-cyano-5H-dibenzo[a,d]cycloheptene-5-yl)propyl]piperidin-4-ol], under setting [1], the IC50 is 88 nM.

In turn, `N#CC1(CCCN2CCC(O)(c3ccc(Cl)cc3)CC2)c2ccccc2CCc2ccccc21` [Example 2, 4-(4-Chlorophenyl)-1-[3-(5-cyano-10,11-dihydro-5H-dibenzo[a,d]cycloheptene-5-yl)propyl]piperidin-4-ol] came in with an IC50 of 52 nM.

For the compound `N#CC1(CCCN2CCC(O)(c3ccc(Cl)cc3)CC2)c2ccccc2COc2ccccc21` (centres unmarked) [Example 3, 4-(4-Chlorophenyl)-1-[3-(11-cyano-6,11-dihydrodibenz[b,e]oxepin-11-yl)propyl]piperidin-4-ol], the IC50 under setting [1] was determined as 110 nM.

For the compound `N#CC1(CCCN2CCC(O)(c3ccc(F)cc3)CC2)c2ccccc2COc2ccccc21` (centres unmarked) [Example 4, 1-[3-(11-Cyano-6,11-dihydrodibenz[b,e]oxepin-11-yl)propyl]-4-(4-fluorophenyl)piperidin-4-ol], the IC50 under setting [1] came out at 390 nM.

Regarding `N#CC1(CCCN2CCC(O)(c3ccc(Cl)cc3)CC2)c2ccccc2COc2ccc(F)cc21` (centres unmarked) [Example 5, 4-(4-Chlorophenyl)-1-[3-(11-cyano-6,11-dihydro-2-fluorodibenz[b,e]oxepin-11-yl)propyl]piperidin-4-ol], the IC50 under setting [1] came out at 190 nM.

For `N#CC1(CCCN2CCC(O)(c3ccc(Cl)cc3)CC2)c2ccccc2COc2ccc(Br)cc21` (centres unmarked) [Example 6, 1-[3-(2-Bromo-11-cyano-6,11-dihydrodibenz[b,e]oxepin-11-yl)propyl]-4-(4-chlorophenyl)piperidin-4-ol], the IC50 under setting [1] amounted to 300 nM.

`Cc1ccc2c(c1)C(C#N)(CCCN1CCC(O)(c3ccc(Cl)cc3)CC1)c1ccccc1CO2` (centres unmarked) [Example 7, 4-(4-Chlorophenyl)-1-[3-(11-cyano-6,11-dihydro-2-methyldibenz[b,e]oxepin-11-yl)propyl]piperidin-4-ol]: the IC50 under setting [1] stood at 380 nM.

For the compound `N#CC1(CCCN2CCC(O)(c3ccc(Cl)cc3)CC2)c2ccccc2CSc2ccccc21` (centres unmarked) [Example 10, 4-(4-Chlorophenyl)-1-[3-(11-cyano-6,11-dihydrodibenzo[b,e]thiepin-11-yl)propyl] piperidin-4-ol], the IC50 turned out to be 97 nM.

On to `N#CC1(CCCN2CCC(O)(c3ccccc3)CC2)c2ccccc2CSc2ccccc21` (centres unmarked) [Example 11, 1-[3-(1l-Cyano-6,11-dihydrodibenzo[b,e]thiepin-11-yl)propyl]-4-phenylpiperidin-4-ol], for which the IC50 under setting [1] came to 11000 nM.

With `N#CC1(CCCN2CCC(O)(c3ccc(Br)cc3)CC2)c2ccccc2CSc2ccccc21` (centres unmarked) [Example 12, 4-(4-Bromophenyl)-1-[3-(11-cyano-6,11-dihydrodibenzo[b,e]thiepin-11-yl)propyl]piperidi n-4-ol], under setting [1], the IC50 came to 99 nM.

As to `N#CC1(CCCN2CCC(O)(c3ccc(Cl)cc3)CC2)c2ccccc2CSc2ccc(Br)cc21` (centres unmarked) [Example 13, 1-[3-(2-Bromo-11-cyano-6,11-dihydrodibenzo[b,e]thiepin-11-yl)propyl]-4-(4-chlorophenyl)piperidin-4-ol], under setting [1], the IC50 stood at 380 nM.

As for `N#CC1(CCCN2CCC(O)(c3ccc(Cl)cc3)CC2)c2ccccc2CS(=O)(=O)c2ccccc21` (centres unmarked) [Example 16, 4-(4-Chlorophenyl)-1-[3-(11-cyano-6,11-dihydro-5,5-dioxodibenzo[b,e]thiepin-11-yl)propyl]piperidin-4-ol], the IC50 under setting [1] amounted to 79 nM.

Regarding `OC1(c2ccc(Cl)cc2)CCN(CCCC2c3ccccc3CSc3ccccc32)CC1` (centres unmarked) [Example 17, 4-(4-Chlorophenyl)-1-[3-(6,11-dihydrodibenzo[b,e]thiepin-11-yl)propyl]piperidin-4-ol], the IC50 under setting [1] came to 70 nM.

Regarding `OC1(c2ccc(Cl)cc2)CCN(CCCC2c3ccccc3CCc3ccccc32)CC1` [Example 18, 4-(4-Chlorophenyl)-1-[3-(10,11-dihydro-5H-dibenzo[a,d]cycloheptene-5-yl)propyl]piperidin-4-ol], the IC50 under setting [1] worked out at 55 nM.

For the compound `OC1(c2ccc(Cl)cc2)CCN(CCCC2c3ccccc3COc3ccccc32)CC1` (centres unmarked) [Example 19, 4-(4-Chlorophenyl)-1-[3-(6,11-dihydrodibenz[b,e]oxepin-11-yl)propyl]piperidin-4-ol], the IC50 under setting [1] was determined as 59 nM.

`O=C(NCC1(CCCN2CCC(O)(c3ccc(Cl)cc3)CC2)c2ccccc2CSc2ccccc21)Oc1ccccc1` (centres unmarked) [Example 22] returned an IC50 of 690 nM.

The compound `O=C(CCN1CCC(O)(c2ccc(Cl)cc2)CC1)C1c2ccccc2CCc2ccccc21` [Example 24, 4-(4-Chlorophenyl)-1-[3-(10,11-dihydro-5H-dibenzo[a,d]cycloheptene-5-yl)-3-propioyl]piperidin-4-ol] had an IC50 of 160 nM.
